Assays:
Assay in all cases: relative viability (nuclei count vs DMSO), 5 days (fraction); higher = more cells survive
[1] = compound: C1CNCCC1C2=CC(=NN2)C3=CC=NC=C3 + NC(=O)Nc1cc(-c2cccc(F)c2)sc1C(=O)N[C@H]1CCCNC1 [AZD7762] (partner 0.2 µM)
Outline: (§1)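 Lung cancer cell lines in 1536-well plates were dosed by pin tool the day after seeding, either with one drug alone or with a fixed anchor-drug dose plus five library-drug doses (not always all listed) in √10 steps. After 5 days, cells were fixed and their nuclei stained in one step (final 0.05% Triton X-100, 1% formaldehyde, 1 ug/ml Hoechst), then counted on 4× images. Relative viability is the nuclei count in treated wells divided by that in vehicle wells. Values are medians of duplicate plates.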

[2] = compound: C[C@@H](N)c1ccc(C(=O)Nc2ccnc3[nH]ccc23)cc1 + CC(=O)c1c(C)c2cnc(Nc3ccc(N4CCNCC4)cn3)nc2n(C2CCCC2)c1=O [Palbociclib] (partner 0.5 µM)
Outline: as §1

[3] = compound: C[C@@H](N)c1ccc(C(=O)Nc2ccnc3[nH]ccc23)cc1 + C[C@]1(O)C[C@@H](c2nc(-c3ccc4ccc(-c5ccccc5)nc4c3)c3c(N)nccn32)C1 [Linsitinib] (partner 1 µM)
Outline: as §1

[4] = compound: O[C@H]1CC[C@H](Nc2ncc3nc(Nc4c(F)cc(F)cc4F)n([C@H]4CCOC4)c3n2)CC1 [Tanzisertib] + CC(=O)c1c(C)c2cnc(Nc3ccc(N4CCNCC4)cn3)nc2n(C2CCCC2)c1=O [Palbociclib] (partner 0.5 µM)
Outline: as §1

Cell Line | relative viability ([1]; first compound 0.08 µM) | relative viability ([1]; first compound 0.8 µM) | relative viability ([1]; first compound 2.53 µM) | relative viability ([1]; first compound 8 µM) | relative viability ([2]; first compound 0.04 µM) | relative viability ([2]; first compound 0.1265 µM) | relative viability ([2]; first compound 0.4 µM) | relative viability ([2]; first compound 1.265 µM) | relative viability ([2]; first compound 4 µM) | relative viability ([3]; first compound 0.04 µM) | relative viability ([3]; first compound 0.1265 µM) | relative viability ([3]; first compound 0.4 µM) | relative viability ([3]; first compound 1.265 µM) | relative viability ([3]; first compound 4 µM) | relative viability ([4]; first compound 0.08 µM) | relative viability ([4]; first compound 0.253 µM) | relative viability ([4]; first compound 0.8 µM) | relative viability ([4]; first compound 2.53 µM) | relative viability ([4]; first compound 8 µM)
201T | 0.645 | 0.65 | 0.654 | 0.562 | 0.367 | 0.342 | 0.376 | 0.359 | 0.415 | 1.14 | 1.02 | 1.07 | 1.11 | 1.16 | 0.369 | 0.375 | 0.35 | 0.342 | 0.334
A549 |  |  |  |  |  |  |  |  |  | 0.674 | 0.666 | 0.726 | 0.775 | 0.619 |  |  |  |  | 
A-427 | 0.752 | 0.802 | 0.92 | 0.774 | 0.472 | 0.553 | 0.388 | 0.432 | 0.421 | 1.08 | 1.11 | 1.06 |  | 1.12 | 0.565 | 0.538 | 0.52 | 0.507 | 0.511
ABC-1 | 0.851 | 0.519 | 0.915 | 1.02 | 0.662 | 0.775 | 0.789 | 0.976 | 0.552 | 0.894 | 0.81 | 0.998 | 0.911 | 0.683 | 0.927 | 0.597 | 0.946 | 0.818 | 0.824
BEN | 0.546 | 0.634 | 0.675 | 0.772 | 0.483 | 0.425 | 0.438 | 0.587 | 0.449 | 0.981 | 0.86 | 0.991 | 1.02 | 0.636 | 0.448 | 0.532 | 0.502 | 0.492 | 0.509
CAL-12T | 0.701 | 0.669 | 0.601 | 0.66 | 0.558 | 0.438 | 0.519 | 0.161 | 0.428 | 0.928 | 0.888 | 0.88 | 1.09 | 0.719 | 0.486 | 0.447 | 0.539 | 0.422 | 0.279
COR-L23 |  |  |  |  | 0.231 | 0.357 | 0.305 | 0.235 | 0.215 | 0.968 | 0.925 | 0.874 | 0.744 | 0.442 | 0.325 | 0.331 | 0.336 | 0.275 | 0.298
COR-L 105 |  |  |  |  | 0.377 | 0.399 | 0.424 | 0.348 | 0.371 | 0.917 | 1.02 | 0.857 | 0.845 | 0.436 | 0.411 | 0.4 | 0.407 | 0.417 | 0.39
Calu-6 |  |  |  |  |  |  |  |  |  | 0.757 | 0.952 | 0.984 | 0.922 | 0.839 |  |  |  |  | 
ChaGo-K-1 | 0.886 | 0.876 | 0.926 | 0.753 | 0.923 | 0.908 | 0.947 | 0.893 | 0.865 |  |  |  |  |  | 0.977 | 0.927 | 0.91 | 0.889 | 0.903
EBC-1 |  |  |  |  |  |  |  |  |  | 1.07 | 0.873 | 0.961 | 1.05 | 0.86 |  |  |  |  | 
EKVX | 0.754 |  | 0.704 | 0.701 | 0.413 | 0.415 | 0.432 | 0.38 | 0.28 | 1.12 | 1.13 | 1.2 | 1.19 | 1.01 | 0.455 | 0.388 | 0.363 | 0.414 | 0.355
EMC-BAC-2 | 0.892 | 1.14 | 1.16 | 1.12 | 0.473 | 0.501 | 0.474 | 0.48 | 0.436 | 0.84 | 0.846 | 0.738 | 0.827 | 0.613 | 0.537 | 0.513 | 0.463 | 0.509 | 0.495
EPLC-272H | 0.18 | 0.261 | 0.26 | 0.212 | 0.39 | 0.356 | 0.384 |  | 0.427 | 1.34 | 1.24 | 1.28 |  | 1.13 | 0.374 | 0.316 | 0.326 | 0.306 | 0.287
H3255 | 0.954 | 0.835 | 1.12 | 0.967 | 0.299 | 0.298 | 0.298 | 0.336 | 0.286 | 0.997 | 1.04 | 1.26 | 0.957 | 0.947 | 0.297 | 0.301 | 0.327 | 0.336 | 0.31
HARA | 0.328 | 0.306 | 0.295 | 0.258 | 0.292 | 0.271 | 0.28 | 0.214 | 0.248 | 1.09 | 1.06 | 1.15 | 0.996 | 0.521 | 0.247 | 0.313 | 0.257 | 0.193 | 0.267
HCC-15 | 1.17 | 1.3 | 1.21 | 0.987 | 0.705 | 0.704 | 0.704 | 0.694 | 0.674 | 0.951 | 0.888 | 0.845 |  | 0.797 | 0.794 | 0.73 | 0.737 | 0.752 | 0.713
HCC-44 | 0.976 | 1.04 | 1.04 | 1.04 | 0.929 | 0.96 | 1.02 | 1.15 | 1.02 | 0.703 | 0.682 | 0.708 | 0.713 | 0.532 | 1.02 | 1.03 | 0.94 | 0.955 | 1.1
HCC-78 | 0.644 |  | 0.888 | 0.723 | 0.456 | 0.45 | 0.544 |  | 0.482 | 0.776 | 0.518 | 0.804 | 0.735 | 0.424 | 0.405 | 0.474 | 0.488 | 0.514 | 0.472
HCC-366 | 0.271 | 0.361 | 0.287 | 0.345 | 0.474 | 0.392 | 0.379 | 0.455 | 0.383 | 0.615 | 0.63 | 0.785 |  | 0.49 |  | 0.395 | 0.424 | 0.368 | 0.384

— the supplement of paper PMC10307832
